# Activity calls are given as the source filed them.
# Key:
# [1] = tested on: HEK293; assay: cells; assay type: functional, cell-based; conditions: Homo sapiens
# [2] = biological target: T1, Replicative DNA helicase DnaB (Mycobacterium tuberculosis, UniProt P9WMR3); assay: DnaB intein splicing inhibitors, dose response, biochemical, cell-free fluorescence (AID 449749); assay type: functional
# T1 sequence (P9WMR3 whole entry): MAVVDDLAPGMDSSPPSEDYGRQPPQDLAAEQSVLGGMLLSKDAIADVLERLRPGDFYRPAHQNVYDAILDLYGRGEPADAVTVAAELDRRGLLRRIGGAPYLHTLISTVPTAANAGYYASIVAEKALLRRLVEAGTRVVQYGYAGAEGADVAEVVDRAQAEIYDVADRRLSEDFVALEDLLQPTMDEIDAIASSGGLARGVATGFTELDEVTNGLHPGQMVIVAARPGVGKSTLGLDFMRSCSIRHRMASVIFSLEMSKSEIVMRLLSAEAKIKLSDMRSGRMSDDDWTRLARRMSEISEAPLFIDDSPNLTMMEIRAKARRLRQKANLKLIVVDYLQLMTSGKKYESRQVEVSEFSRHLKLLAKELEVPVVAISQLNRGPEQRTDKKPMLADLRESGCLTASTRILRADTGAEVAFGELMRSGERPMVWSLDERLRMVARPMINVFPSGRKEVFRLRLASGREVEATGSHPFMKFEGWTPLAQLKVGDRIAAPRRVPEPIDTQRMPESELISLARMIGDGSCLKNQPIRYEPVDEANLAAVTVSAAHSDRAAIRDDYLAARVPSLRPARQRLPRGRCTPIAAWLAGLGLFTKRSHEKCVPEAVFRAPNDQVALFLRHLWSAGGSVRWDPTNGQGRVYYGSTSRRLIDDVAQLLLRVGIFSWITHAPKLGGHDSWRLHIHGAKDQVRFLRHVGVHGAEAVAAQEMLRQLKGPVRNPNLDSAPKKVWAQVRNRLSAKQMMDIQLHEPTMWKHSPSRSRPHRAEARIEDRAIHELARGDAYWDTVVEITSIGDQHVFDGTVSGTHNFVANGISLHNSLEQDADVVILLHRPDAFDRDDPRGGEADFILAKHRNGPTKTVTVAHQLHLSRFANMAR
# [3] = tested on: HEK293; assay: cells; assay type: functional, cell-based; conditions: Homo sapiens; remark: listed apart in the source
# [4] = tested on: HEK293; assay: NOD1 signaling inhibitors, primary screen, cell-based, luminescence, uHTS (AID 1578); assay type: functional; conditions: Homo sapiens
# [5] = tested on: HEK293; assay: cells; conditions: Homo sapiens
# [6] = tested on: HEK293; assay: NOD2 signaling inhibitors in MDP-stimulated cells, cell-based, uHTS, luminescence (AID 2001); assay type: functional; conditions: Homo sapiens
# [7] = biological target: T2, Protein RecA (Mycobacterium tuberculosis, UniProt P9WHJ3); assay: Fluorescence Cell-Free Homogeneous Dose Retest to Identify Inhibitors of RecA-Intein Splicing Activity. [Related pubchem assays (depositor defined):AID2097, AID2223, AID489010, AID492950]; assay type: functional
# T2 sequence (P9WHJ3 whole entry): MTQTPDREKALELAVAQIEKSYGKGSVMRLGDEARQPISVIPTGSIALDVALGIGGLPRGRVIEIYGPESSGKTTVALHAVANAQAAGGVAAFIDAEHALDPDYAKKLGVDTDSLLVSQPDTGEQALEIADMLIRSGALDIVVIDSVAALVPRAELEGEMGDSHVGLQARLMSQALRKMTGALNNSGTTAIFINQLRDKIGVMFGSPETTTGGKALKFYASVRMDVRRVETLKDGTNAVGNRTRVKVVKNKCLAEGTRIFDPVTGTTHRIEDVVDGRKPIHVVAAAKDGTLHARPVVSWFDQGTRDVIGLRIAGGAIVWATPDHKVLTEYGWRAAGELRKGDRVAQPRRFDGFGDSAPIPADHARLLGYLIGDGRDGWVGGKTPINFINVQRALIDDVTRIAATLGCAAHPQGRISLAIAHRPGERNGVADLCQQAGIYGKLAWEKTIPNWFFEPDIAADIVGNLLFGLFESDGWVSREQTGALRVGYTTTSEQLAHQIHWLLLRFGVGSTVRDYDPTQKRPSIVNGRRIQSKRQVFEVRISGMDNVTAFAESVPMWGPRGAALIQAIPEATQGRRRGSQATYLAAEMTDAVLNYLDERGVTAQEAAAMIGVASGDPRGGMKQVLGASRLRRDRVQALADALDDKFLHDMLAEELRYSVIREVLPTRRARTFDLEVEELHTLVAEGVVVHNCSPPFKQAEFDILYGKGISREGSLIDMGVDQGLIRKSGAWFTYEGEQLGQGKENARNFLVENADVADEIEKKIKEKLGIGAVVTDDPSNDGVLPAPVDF
# [8] = tested on: HEK293; assay: cells; conditions: Homo sapiens; remark: listed apart in the source
# [9] = biological target: Dual specificity tyrosine-phosphorylation-regulated kinase 1A (Rattus norvegicus, UniProt Q63470); assay type: biochemical, Homo sapiens
# [10] = tested on: HEK293; assay: cells; assay type: functional, cell-based; conditions: Homo sapiens; remark: listed apart in the source
# [11] = biological target: T3, Nuclear receptor subfamily 0 group B member 1 (Homo sapiens, UniProt P51843); assay: Luminescence-based cell-based high throughput dose response assay for inhibitors of the orphan nuclear receptor subfamily 0, group B, member 1 (DAX1; NR0B1). [Related pubchem assays (depositor defined):AID504766, AID504790]; assay type: functional
# T3 sequence (P51843 whole entry): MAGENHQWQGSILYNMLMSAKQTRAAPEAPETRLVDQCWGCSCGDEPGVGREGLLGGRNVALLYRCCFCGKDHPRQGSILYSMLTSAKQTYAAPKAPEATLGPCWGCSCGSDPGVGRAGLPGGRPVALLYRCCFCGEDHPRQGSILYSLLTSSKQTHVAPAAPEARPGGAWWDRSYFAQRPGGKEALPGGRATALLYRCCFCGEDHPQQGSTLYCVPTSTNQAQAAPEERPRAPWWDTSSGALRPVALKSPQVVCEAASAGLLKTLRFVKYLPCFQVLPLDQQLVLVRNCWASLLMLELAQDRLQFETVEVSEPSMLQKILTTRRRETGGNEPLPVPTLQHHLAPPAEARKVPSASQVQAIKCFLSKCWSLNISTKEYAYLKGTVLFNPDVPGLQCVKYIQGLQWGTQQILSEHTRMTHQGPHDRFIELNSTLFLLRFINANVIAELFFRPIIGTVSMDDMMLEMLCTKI
# [12] = biological target: Glyceraldehyde-3-phosphate dehydrogenase (Homo sapiens, UniProt P04406)
# Glyceraldehyde-3-phosphate dehydrogenase, sequence (P04406 whole entry): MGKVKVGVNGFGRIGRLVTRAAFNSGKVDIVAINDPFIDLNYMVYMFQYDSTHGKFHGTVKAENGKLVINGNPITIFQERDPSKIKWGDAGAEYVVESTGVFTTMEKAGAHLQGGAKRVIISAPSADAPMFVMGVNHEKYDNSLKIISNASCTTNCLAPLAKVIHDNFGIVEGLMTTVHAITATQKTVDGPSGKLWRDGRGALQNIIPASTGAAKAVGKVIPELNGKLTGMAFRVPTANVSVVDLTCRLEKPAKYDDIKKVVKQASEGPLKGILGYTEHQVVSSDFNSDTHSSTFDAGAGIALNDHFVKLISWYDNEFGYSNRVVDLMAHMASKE
# [13] = biological target: Heat shock 70 kDa protein 1A (Homo sapiens, UniProt P0DMV8); assay: Hsp70 inhibitors, SAR follow-up, biochemical, fluorescence polarization (AID 1072)
# Heat shock 70 kDa protein 1A, sequence (P0DMV8 whole entry): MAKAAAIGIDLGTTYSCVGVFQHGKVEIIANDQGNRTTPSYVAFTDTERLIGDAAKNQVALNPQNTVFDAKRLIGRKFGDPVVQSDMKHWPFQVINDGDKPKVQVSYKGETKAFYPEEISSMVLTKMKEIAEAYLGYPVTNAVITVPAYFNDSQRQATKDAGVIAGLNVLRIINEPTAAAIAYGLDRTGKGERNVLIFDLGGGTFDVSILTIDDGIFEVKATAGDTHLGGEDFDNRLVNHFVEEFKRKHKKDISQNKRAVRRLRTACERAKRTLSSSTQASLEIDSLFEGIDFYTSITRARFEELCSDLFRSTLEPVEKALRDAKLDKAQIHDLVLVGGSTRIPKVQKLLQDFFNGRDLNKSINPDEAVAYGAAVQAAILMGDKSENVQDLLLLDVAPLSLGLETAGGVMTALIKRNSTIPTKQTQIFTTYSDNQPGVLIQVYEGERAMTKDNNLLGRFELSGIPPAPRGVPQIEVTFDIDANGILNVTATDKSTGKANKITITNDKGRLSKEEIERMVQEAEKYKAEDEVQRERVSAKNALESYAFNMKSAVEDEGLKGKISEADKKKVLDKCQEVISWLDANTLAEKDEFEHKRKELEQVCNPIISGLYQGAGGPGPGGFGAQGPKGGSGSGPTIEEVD
# [14] = biological target: Heat shock cognate 71 kDa protein (Homo sapiens, UniProt P11142); assay: In Vitro Hsc70 Dose Response Fluorescence Polarization Assay. [Related pubchem assays: 1072 ]
# Heat shock cognate 71 kDa protein, sequence (P11142 whole entry): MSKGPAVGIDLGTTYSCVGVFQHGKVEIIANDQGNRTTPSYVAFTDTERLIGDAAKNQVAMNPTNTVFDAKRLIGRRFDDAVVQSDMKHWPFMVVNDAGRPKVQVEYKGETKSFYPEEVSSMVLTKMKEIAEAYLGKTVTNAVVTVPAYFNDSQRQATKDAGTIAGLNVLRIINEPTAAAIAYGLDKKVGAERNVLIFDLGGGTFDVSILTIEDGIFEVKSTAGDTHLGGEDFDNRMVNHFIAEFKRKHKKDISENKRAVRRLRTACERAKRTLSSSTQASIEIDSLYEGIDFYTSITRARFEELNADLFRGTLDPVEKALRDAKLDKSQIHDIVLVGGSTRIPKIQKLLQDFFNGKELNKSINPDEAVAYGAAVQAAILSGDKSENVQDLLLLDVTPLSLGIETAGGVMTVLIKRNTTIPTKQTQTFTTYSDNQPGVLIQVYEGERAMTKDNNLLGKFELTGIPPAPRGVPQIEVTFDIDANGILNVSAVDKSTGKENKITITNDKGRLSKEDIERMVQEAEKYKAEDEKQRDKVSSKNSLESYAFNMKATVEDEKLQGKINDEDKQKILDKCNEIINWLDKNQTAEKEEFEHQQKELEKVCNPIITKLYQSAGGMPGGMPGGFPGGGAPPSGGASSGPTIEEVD
# [15] = biological target: T4, Tyrosine-protein phosphatase non-receptor type 7 (Homo sapiens, UniProt P35236); assay type: functional
# T4 sequence (P35236 whole entry): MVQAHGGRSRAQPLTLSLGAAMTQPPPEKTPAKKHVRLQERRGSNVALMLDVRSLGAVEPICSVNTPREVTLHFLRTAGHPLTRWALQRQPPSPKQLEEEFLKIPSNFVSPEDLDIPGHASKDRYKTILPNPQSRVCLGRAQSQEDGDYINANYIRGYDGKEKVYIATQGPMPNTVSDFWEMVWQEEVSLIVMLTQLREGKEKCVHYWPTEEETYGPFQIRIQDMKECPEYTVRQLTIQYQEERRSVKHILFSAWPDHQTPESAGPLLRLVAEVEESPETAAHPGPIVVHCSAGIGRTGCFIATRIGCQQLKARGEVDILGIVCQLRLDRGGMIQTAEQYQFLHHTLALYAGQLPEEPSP
# [16] = biological target: T5, Dual specificity protein phosphatase 6 (Rattus norvegicus, UniProt Q64346); assay type: functional
# T5 sequence (Q64346 whole entry): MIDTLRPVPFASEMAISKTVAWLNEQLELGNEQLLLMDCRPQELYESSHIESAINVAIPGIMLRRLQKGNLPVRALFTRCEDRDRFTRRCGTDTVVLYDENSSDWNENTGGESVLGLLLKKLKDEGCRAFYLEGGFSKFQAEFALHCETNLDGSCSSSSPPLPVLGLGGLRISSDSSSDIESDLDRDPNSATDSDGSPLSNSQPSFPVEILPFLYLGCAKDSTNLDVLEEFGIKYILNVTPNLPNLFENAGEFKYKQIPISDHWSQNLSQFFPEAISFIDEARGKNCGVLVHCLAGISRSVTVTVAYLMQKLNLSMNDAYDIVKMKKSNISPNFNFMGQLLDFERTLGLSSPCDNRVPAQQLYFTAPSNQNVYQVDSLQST
# [17] = biological target: T5, Dual specificity protein phosphatase 6
# [18] = Vero E6 cell cytotoxicity, dose response, cytotoxicity control for non-replicating M. tuberculosis project, secondary assay (AID 492998); assay type: functional, VeroE6; conditions: Vero C1008
# [19] = tested on: HEK293; assay: cytotoxicity in HEK293T NF-kB-Luc cells, SAR follow-up, cytotoxicity control for NF-kB activator project, cell-based, resazurin fluorescence (AID 493251); assay type: functional; conditions: Homo sapiens
# [20] = THP-1 cell cytotoxicity, dose response, cytotoxicity control for non-replicating M. tuberculosis project (AID 489025); assay type: functional
# [21] = tested on: HEK293; assay: SAR Analysis of small molecule inhibitors of T-cell specific antigen receptor-induced NF-kB activation in a HEK-293T cell line using a luminescence assay - Set 2. [Related pubchem assays (depositor defined):AID435003, AID435012, AID489026]; assay type: functional, cell-based
# [22] = biological target: T6, Microphthalmia-associated transcription factor (Homo sapiens, UniProt O75030); assay: TRPM1 promoter luciferase signal decrease, dose response, MITF inhibitor project, cell-based, SK-MEL-5, cherry-picked, set 3 (AID 493073); assay type: functional
# T6 sequence (O75030 whole entry): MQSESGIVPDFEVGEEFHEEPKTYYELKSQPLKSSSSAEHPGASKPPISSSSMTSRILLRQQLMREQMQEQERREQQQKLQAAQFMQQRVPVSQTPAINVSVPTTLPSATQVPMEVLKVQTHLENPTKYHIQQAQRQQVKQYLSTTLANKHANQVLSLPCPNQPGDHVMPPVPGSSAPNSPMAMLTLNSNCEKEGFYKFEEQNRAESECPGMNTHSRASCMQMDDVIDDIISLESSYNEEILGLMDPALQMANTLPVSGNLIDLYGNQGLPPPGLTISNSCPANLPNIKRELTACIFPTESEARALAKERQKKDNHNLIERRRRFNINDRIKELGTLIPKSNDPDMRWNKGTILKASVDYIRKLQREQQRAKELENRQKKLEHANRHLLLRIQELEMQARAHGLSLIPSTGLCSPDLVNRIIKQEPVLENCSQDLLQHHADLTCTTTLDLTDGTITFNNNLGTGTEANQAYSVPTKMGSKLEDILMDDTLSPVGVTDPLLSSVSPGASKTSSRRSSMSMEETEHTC
# [23] = tested on: Jurkat; assay: SAR Analysis of small molecule inhibitors of T-cell specific antigen receptor-induced NF-kB activation in a Jurkat cell line using a luminescence assay - Set 2. [Related pubchem assays (depositor defined):AID435003, AID435012, AID465]; assay type: functional, cell-based
# [24] = cells; assay type: functional
# [25] = off-target signal loss in HeLa-CEM21 co-culture – HeLa F-luc CTL cells, cherry-picked, counter-screen for HIV-1 Env fusion inhibitor project, dose response (AID 652040); assay type: functional, cell-based;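 also: potency for signal decrease marking cytotoxic or nonspecific inhibition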
# [26] = inhibitors of clade B AD8 Env fusion, dose response, cell-based, cherry-pick (AID 652062); assay type: functional;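 also: luciferase signal from cell-cell fusion driven by HIV-1 clade B AD8 Env; potency is for inhibitors of fusion seen as a drop in luminescence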
# [27] = inhibitors of HIV Env-driven cell fusion, dose response, cherry-pick (AID 652057); assay type: functional, cell-based
# [28] = ZM109 Env clade C HIV-1 fusion inhibitors, dose response, HeLa effector, CEM target cells, luciferase, cherry-pick (AID 652058); assay type: functional, cell-based
smiles,measurement,setting,value
O=C(CCl)Nc1cc(S(=O)(=O)N2CCCCCC2)ccc1Cl,IC50,[1],7.86 µM (active)
same,AC50,[2],9.12 µM (active)
same,IC50,[3],> 20 µM (inactive)
same,EC50,[4],9.38 µM (active)
same,EC50,[5],> 59.6 µM (inactive)
same,IC50,[6],> 20 µM (inactive)
same,EC50,[7],2.03 µM (active)
same,EC50,[8],> 59.6 µM (inactive)
c1cncc(-c2nc3ccccc3[nH]2)c1,AC50,[9],> 120 µM (inactive)
O=C(NC1=NCCS1)c1cccc(Br)c1,IC50,[10],> 67.5 µM (inactive)
same,IC50,[11],> 67.5 µM (inactive)
Cc1cc([N+](=O)[O-])cc2c1NC(C(=O)O)C1CC=CC21 (stereo not drawn),IC50,[12],> 100 µM (not active)
same,IC50,[13],24.3 µM (active)
same,IC50,[14],117 µM (active)
same,IC50,[15],> 100 µM (not active)
same,IC50,[16],> 100 µM (inactive)
same,IC50,[17],> 100 µM (inactive)
O=C(O)C1Nc2ccccc2C2C=CCC12 (stereo not drawn),IC50,[12],> 100 µM (not active)
same,IC50,[13],7.14 µM (active)
same,IC50,[14],> 100 µM (not active)
same,IC50,[15],6.05 µM (active)
same,IC50,[16],25.2 µM (active)
same,IC50,[17],50.8 µM (active)
Cc1cccc(NC(=O)c2ccc([N+](=O)[O-])o2)c1C,CC50,[18],8.76 µM (active)
same,IC50,[19],> 80 µM (inactive)
same,CC50,[20],20.5 µM (active)
same,IC50,"[21]; Homo sapiens, HEK293",69.2 µM (inactive)
same,IC50,[21]; hek293,63.1 µM (inactive)
same,AC50,[22],14.8 µM (active)
same,IC50,"[23]; Homo sapiens, Jurkat",17.8 µM (active)
same,IC50,[23]; jurkat,14.6 µM (active)
same,IC50,[24],10.8 µM (active)
CCN1C(=O)[C@H]2[C@@H](c3ccc(C)cc3)N3C(=O)N(c4cccc(Cl)c4)C(=O)[C@@]3(CC)[C@H]2C1=O,AC50,[25],3.98 µM (active)
same,EC50,[5],> 59.6 µM (inactive)
same,AC50,[26],4.82 µM (active)
same,AC50,[27],2.33 µM (active)
same,AC50,[28],2.06 µM (active)
same,EC50,[8],> 59.6 µM (inactive)
